Assay results from patent US7196110B2, “N-substituted tricyclic 3-aminopyrazoles as inhibitors for the treatment of cell proliferative disorders” (Janssen Phamaceutica N.V., priority 2002, dated 2007).

Molecular target: T1, PDGF-receptor beta enzyme comprising the tyrosine kinase domain (Homo sapiens, UniProt P09619)
T1 construct: from amino acid 545 to 1106 of GenBank Access NO: AAA36427
Test: Inhibition of PDGF-receptor kinase activity (cell-free, PLC1 peptide, 33P Flashplate)
Type: biochemical
Conditions: PDGF-R kinase activity; for inhibition at 10 µM: compound at 10 uM, read-out: Percent Inhibition @ 10 uM; for IC50: read-out: IC50
Experimental: PDGF-R kinase activity was assayed by its ability to phosphorylate one of its target proteins, PLCγ, in a cell-free system, in particular, a PLC1 peptide comprising the tyrosine residue where the phosphorylation occurs was used for the assay.
10× Kinase Buffer (500 mM Tris-HCl pH=8, 100 mM MgCl2, 1 mM Na3VO4); 10 mM DTT (final concentration at 1 mM in assay); 10 mM ATP (final concentration at 5 μM in assay); ^33P-γ-ATP (Cat. No.: NEG/602H. 2000-3000 Ci/mmol) purchased from NEN; Purified, soluble, recombinant PDGF-receptor beta enzyme comprising the tyrosine kinase domain (from amino acid 545 to 1106 of GenBank Access NO: AAA36427 ) at 0.4 mg/mL; Enzyme Dilution Buffer (50 mM Tris-HCl pH=8.0, 0.1% BSA); Wash/Stop Buffer (PBS +100 mM EDTA); NEN Streptavidin Flashplates (Cat. No.: SMP-103) which binds to the biotinylated PLC1 peptide but not the PDGF-R enzyme; PLC1 peptide (Biotin-[…]-Amide) at 1 mM in 50 mM Tris-HCL with pH of 8.0.
Reagents were first mixed according the following regimen:
The above reaction mixture was dispensed into each well of a Flashplate at 70 μl/well. To test the effect of a compound on PDGF-R kinase activity, the test compound either in a fixed concentration or in serially diluted concentrations in 100% DMSO was added to appropriate wells at 1 μl/well.
Enzyme PDGF-R was diluted in Enzyme dilution buffer as following:
The kinase reaction was initiated by adding 30 μl of diluted PDGF-R enzyme solution to each well on the Flashplate containing hot ATP and PLC1, except wells of column 12 rows E through H, which were used to calculate the plate background. The Flashplate was swirled to mix and was incubated at 30° C. for 60 minutes. Then, the reaction mixture was discarded and the Flashplate was washed 3 times each with 200 μl Wash/Stop Buffer. Subsequently, each well on the Flashplate was filled with 200 μl of Wash/Stop buffer. The amount of ^33P retained in each well was measured using a Packard TopCount after the plate was sealed with a transparent plate sealer.
The percentage of inhibition of the test compound on PDGF-R kinase activity is defined as […].
In order to test the potency of inhibition of present compounds, an IC50 for an individual compound was measured using the above procedure. As used herein, the IC50 for PDGF-R kinase activity refers to the concentration of an inhibitor at which the activity of the PDGF-R kinase is reduced by one-half as compared with reactions containing no inhibitor.

T1 sequence (P09619 545-1106): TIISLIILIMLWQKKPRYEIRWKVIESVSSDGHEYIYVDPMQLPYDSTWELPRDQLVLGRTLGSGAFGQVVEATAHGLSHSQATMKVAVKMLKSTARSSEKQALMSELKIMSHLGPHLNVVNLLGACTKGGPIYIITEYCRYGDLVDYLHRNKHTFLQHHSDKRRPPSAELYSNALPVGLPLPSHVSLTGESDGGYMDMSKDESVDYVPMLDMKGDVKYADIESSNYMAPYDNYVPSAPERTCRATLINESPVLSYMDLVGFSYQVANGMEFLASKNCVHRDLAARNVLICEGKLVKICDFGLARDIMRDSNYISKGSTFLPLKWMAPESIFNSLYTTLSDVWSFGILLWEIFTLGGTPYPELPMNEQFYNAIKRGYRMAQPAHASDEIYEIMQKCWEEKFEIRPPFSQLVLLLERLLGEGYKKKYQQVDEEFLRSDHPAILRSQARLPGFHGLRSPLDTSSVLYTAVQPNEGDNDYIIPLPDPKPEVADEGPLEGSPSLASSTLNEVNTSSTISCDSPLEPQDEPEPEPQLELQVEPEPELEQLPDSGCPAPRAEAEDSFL

SMILES	inhibition at 10 µM	IC50
COc1ccc(OC)c(Nc2[nH]nc3c2Cc2cc(OC)c(OC)cc2-3)c1 [Compound 48, (6,7-Dimethoxy-2,4-dihydro-indeno[1,2-c]pyrazol-3-yl)-(2,5-dimethoxy-phenyl)-amine]	39%	–
COc1ccc(Nc2[nH]nc3c2Cc2cc(OC)c(OC)cc2-3)cc1OC [Compound 49, (6,7-Dimethoxy-2,4-dihydro-indeno[1,2-c]pyrazol-3-yl)-(3,4-dimethoxy-phenyl)-amine]	72%	3070 nM
OC1c2ccccc2-c2n[nH]c(Nc3ccccc3)c21 (stereo not drawn) [Compound 50, 3-Phenylamino-2,4-dihydro-indeno[1,2-c]pyrazol-4-ol]	38%	11400 nM
COc1cc2c(cc1OC)-c1n[nH]c(Nc3ccc(N4CCN(C)CC4)cc3)c1C2 [Compound 51, (6,7-Dimethoxy-2,4-dihydro-indeno[1,2-c]pyrazol-3-yl)-[4-(4-methyl-piperazin-1-yl)-phenyl]-amine]	30%	26700 nM
c1ccc(Nc2[nH]nc3c2CCc2sccc2-3)cc1 [Compound 52, (4,5-Dihydro-2H-6-thia-1,2-diaza-as-indacen-3-yl)-phenyl-amine]	71%	2400 nM
COc1ccc(Cl)cc1Nc1[nH]nc2c1Cc1cc(OC)c(OC)cc1-2 [Compound 56, (5-Chloro-2-methoxy-phenyl)-(6,7-dimethoxy-2,4-dihydro-indeno[1,2-c]pyrazol-3-yl)-amine]	36%	8400 nM
COc1cc2c(cc1OC)-c1n[nH]c(Nc3ccccc3C(C)C)c1C2 [Compound 57, (6,7-Dimethoxy-2,4-dihydro-indeno[1,2-c]pyrazol-3-yl)-(2-isopropyl-phenyl)-amine]	71%	2150 nM
CCc1ccccc1Nc1[nH]nc2c1Cc1cc(OC)c(OC)cc1-2 [Compound 58, (6,7-Dimethoxy-2,4-dihydro-indeno[1,2-c]pyrazol-3-yl)-(2-ethyl-phenyl)-amine]	40%	8520 nM
COc1cc2c(cc1OC)-c1n[nH]c(NCCN3CCOCC3)c1C2 [Compound 69, (6,7-Dimethoxy-2,4-dihydro-indeno[1,2-c]pyrazol-3-yl)-(2-morpholin-4-yl-ethyl)-amine]	18%	–
COc1cc2c(cc1OC)-c1n[nH]c(Nc3cc(C(F)(F)F)cc(C(F)(F)F)c3)c1C2 [Compound 70, (3,5-Bis-trifluoromethyl-phenyl)-(6,7-dimethoxy-2,4-dihydro-indeno[1,2-c]pyrazol-3-yl)-amine]	41.5%	16800 nM
CN(C)CCCOc1cccc2c1Cc1c-2n[nH]c1Nc1ccc(F)cc1 [Compound 73, [5-(3-Dimethylamino-propoxy)-2,4-dihydro-indeno[1,2-c]pyrazol-3-yl]-(4-fluoro-phenyl)-amine]	~30%	> 50000 nM
COc1cc2c(cc1OC)-c1n[nH]c(Nc3ccc(Br)cc3C(F)(F)F)c1C2 [Compound 76, (4-Bromo-2-trifluoromethyl-phenyl)-(6,7-dimethoxy-2,4-dihydro-indeno[1,2-c]pyrazol-3-yl)-amine]	16%	> 50000 nM
COc1cc2c(cc1OC)-c1n[nH]c(Nc3ccc4c(c3)CCC4)c1C2 [Compound 79, (6,7-Dimethoxy-2,4-dihydro-indeno[1,2-c]pyrazol-3-yl)-indan-5-yl-amine]	56%	3710 nM
COc1cc2c(cc1OC)-c1n[nH]c(NCCN3CCCCC3)c1C2 [Compound 81, (6,7-Dimethoxy-2,4-dihydro-indeno[1,2-c]pyrazol-3-yl)-(2-piperidin-1-yl-ethyl)-amine]	29%	85900 nM

Continued, values first:

inhibition at 10 µM	IC50	SMILES
94%	58.6 nM	COc1cc2c(cc1OC)-c1n[nH]c(Nc3ccc(F)c(Cl)c3)c1C2 [Compound 53, (3-Chloro-4-fluoro-phenyl)-(6,7-dimethoxy-2,4-dihydro-indeno[1,2-c]pyrazol-3-yl)-amine]
76%	636 nM	COc1cc2c(cc1OC)-c1n[nH]c(Nc3cc(F)ccc3F)c1C2 [Compound 55, (2,5-Difluoro-phenyl)-(6,7-dimethoxy-2,4-dihydro-indeno[1,2-c]pyrazol-3-yl)-amine]
71%	1820 nM	COc1cc2c(cc1OC)-c1n[nH]c(Nc3ccc(C#N)cc3)c1C2 [Compound 59, 4-(6,7-Dimethoxy-2,4-dihydro-indeno[1,2-c]pyrazol-3-ylamino)-benzonitrile]
71%	137 nM	COc1cc2c(cc1OC)-c1n[nH]c(Nc3cccc(C#N)c3)c1C2 [Compound 61, 3-(6,7-Dimethoxy-2,4-dihydro-indeno[1,2-c]pyrazol-3-ylamino)-benzonitrile]
85%	313 nM	COc1cc2c(cc1OC)-c1n[nH]c(Nc3ccc4c(c3)OCO4)c1C2 [Compound 62, Benzo[1,3]dioxol-5-yl-(6,7-dimethoxy-2,4-dihydro-indeno[1,2-c]pyrazol-3-yl)-amine]
118%	449 nM	CN1CCN(c2ccc3c(c2)Cc2c-3n[nH]c2Nc2ccccc2)CC1 [Compound 64, [6-(4-Methyl-piperazin-1-yl)-2,4-dihydro-indeno[1,2-c]pyrazol-3-yl]-phenyl-amine]
76%	1540 nM	c1ccc(Nc2[nH]nc3c2Cc2cc(N4CCCCC4)ccc2-3)cc1 [Compound 65, Phenyl-(6-piperidin-1-yl-2,4-dihydro-indeno[1,2-c]pyrazol-3-yl)-amine]
108%	92 nM	Nc1ccc2c(c1)Cc1c-2n[nH]c1Nc1ccccc1 [Compound 66, N3-Phenyl-2,4-dihydro-indeno[1,2-c]pyrazole-3,6-diamine]
77%	617 nM	COc1cc2c(cc1OC)-c1n[nH]c(NC3CCCCC3)c1C2 [Compound 67, Cyclohexyl-(6,7-dimethoxy-2,4-dihydro-indeno[1,2-c]pyrazol-3-yl)-amine]
110%	185 nM	CN(C)CCCOc1cccc2c1Cc1c-2n[nH]c1Nc1ccccc1 [Compound 71, [5-(3-Dimethylamino-propoxy)-2,4-dihydro-indeno[1,2-c]pyrazol-3-yl]-phenyl-amine]
96%	283 nM	CN(C)CCCOc1cccc2c1Cc1c-2n[nH]c1Nc1cccc(Cl)c1 [Compound 72, (3-Chloro-phenyl)-[5-(3-dimethylamino-propoxy)-2,4-dihydro-indeno[1,2-c]pyrazol-3-yl]-amine]
102%	424 nM	COc1cccc(Nc2[nH]nc3c2Cc2c(OCCCN(C)C)cccc2-3)c1 [Compound 74, [5-(3-Dimethylamino-propoxy)-2,4-dihydro-indeno[1,2-c]pyrazol-3-yl]-(3-methoxy-phenyl)-amine]
115%	575 nM	CN(C)CCCOc1cccc2c1Cc1c-2n[nH]c1Nc1cccnc1 [Compound 75, [5-(3-Dimethylamino-propoxy)-2,4-dihydro-indeno[1,2-c]pyrazol-3-yl]-pyridin-3-yl-amine]
108%	217 nM	COC(=O)c1cccc(Nc2[nH]nc3c2Cc2c(OCCCN(C)C)cccc2-3)c1 [Compound 77, 3-[5-(3-Dimethylamino-propoxy)-2,4-dihydro-indeno[1,2-c]pyrazol-3-ylamino]-benzoic acid methyl ester]
85%	1290 nM	COc1cc2c(cc1OC)-c1n[nH]c(Nc3ccco3)c1C2 [Compound 78, (6,7-Dimethoxy-2,4-dihydro-indeno[1,2-c]pyrazol-3-yl)-furan-2-yl-amine]
79%	273 nM	COc1ccc2c(c1)Cc1c-2n[nH]c1Nc1ccc(F)cc1 [Compound 82, (4-Fluoro-phenyl)-(6-methoxy-2,4-dihydro-indeno[1,2-c]pyrazol-3-yl)-amine]
93%	71.9 nM	COc1ccc2c(c1)Cc1c-2n[nH]c1Nc1cccc(Br)c1 [Compound 83, (3-Bromo-phenyl)-(6-methoxy-2,4-dihydro-indeno[1,2-c]pyrazol-3-yl)-amine]
